The values that follow come from publication PMC5754397, “Population pharmacokinetics of nintedanib, an inhibitor of tyrosine kinases, in patients with non-small cell lung cancer or idiopathic pulmonary fibrosis” (Cancer Chemotherapy and Pharmacology, 2017).

For data set [1] the following is noted: Phase I trial; cited from earlier work.
Data set [2] deals with idiopathic pulmonary fibrosis (IPF). More on the design: method as in PMID 21992121, PMID 24836310. Particulars: patients with IPF, 52-week treatment period; cited from earlier work.
Data set [3] can be described thus: Population pharmacokinetic analysis in healthy subjects after intravenous administration of nintedanib (one-compartment model). In kind it is in vivo, human. As to conditions: human, plasma, estimate (RSE%). From the text: The pharmacokinetic profile of BIBF 1202 was best described by a one-compartment model with first-order elimination (see Online Resource Fig. S1 for model structure). To account for formation of BIBF 1202 in the intestine or via hepatic first-pass effect, a first-order absorption with lag time (ALAG2) was implemented as per nintedanib absorption. The relative bioavailability (F2) and the absorption-rate constant (k a2) were implemented as functions of nintedanib F1 and k a, respectively (substantial drop in OFV as compared to a model, where F2 and k a2 were estimated independently of F1 and k a). This parametrization accounted for correlations between nintedanib and BIBF 1202 parameters and replaced the full variance–covariance matrix which was not applied due to the sequential modeling approach used. The rate of formation of BIBF 1202 (k met) during nintedanib systemic elimination was accounted by defining it as a function of nintedanib clearance: k met = CL/V2*ffM, where CL and V2 denote the clearance and central volume of distribution of nintedanib respectively, and ffM denotes the proportion of the nintedanib elimination resulting in BIBF 1202 formation. Due to the lack of data for BIBF 1202 given as an intravenous (IV) infusion, several parameter estimates were not identifiable (ffM, BIBF 1202 apparent volume of distribution [V3/F]) and were, therefore, fixed. The value for ffM was derived from pharmacokinetic data after IV administration of nintedanib (Online Resource Table S4) and the ratio of V3/F–V2/F was fixed based on information observed in rats. […] In addition to the (inter-individual) variability of F2 induced by the variability in F1 (F2 being proportional to F1), additional IIV could be implemented for F2.
Table S4 Structural parameters for nintedanib and BIBF 1202 from a population pharmacokinetic analysis based on healthy subjects (n=23^a, 372 observations) after intravenous administration of nintedanib
One subject (3 mg dose) was excluded from analysis due to increasing plasma concentrations of nintedanib after end of infusion

On the set-up of data set [4]: method as in PMID 21204634. As to conditions: cited from earlier work.

Broadly, the clearance is a measure of how efficiently the substance is removed, as volume per time. Regarding `COC(=O)c1ccc2c(c1)NC(=O)/C2=C(\Nc1ccc(N(C)C(=O)CN2CCN(C)CC2)cc1)c1ccccc1` [nintedanib], in data set [1], the “increase of exposure (AUC0−∞) by food” value was 20% and the “increase of maximum plasma concentrations (Cmax) by food” value is reported as 20%. In data set [2], the “rate of decline in forced vital capacity” value was “significant reduction”. The clearance in data set [3] (healthy subjects (n=23), single intravenous nintedanib infusion 1, 3 or 6 mg, data of absolute bioavailability study [7], read-out: CL, total body clearance for nintedanib (converted)) is 2570 mL/min. Also, the Vd in data set [3] (healthy subjects, intravenous nintedanib, read-out: V2, volume of distribution for nintedanib) is 60.9 L. Also, in data set [4], the eliminated in urine entry is “Less than 1%” and the “excreted in the feces” value is given as “about 94 % of the dose”.
